Measured values as given in ChEMBL document CHEMBL4371025, “Discovery and evaluation of novel FAAH inhibitors in neuropathic pain model” (Bioorg Med Chem Lett, 2019).

Assays:
[1] = Selectivity ratio of IC50 for MAGL (unknown origin) to IC50 for rat FFAH expressed in Escherichia coli; format: toxicity
[2] = Drug uptake in Sprague-Dawley rat brain at 3 mg/kg, iv or 10 mg/kg, po administered as single dose via gavage by LC-MS/MS analysis; format: ADME, organism-based; details: in vivo
[3] = tested on: CYP3A4; test: Selectivity ratio of IC50 for CYP3A4 in human liver microsomes using midazolam as substrate to IC50 for rat FFAH expressed in Escherichia coli; format: toxicity; details: probe midazolam, read-out: Ratio IC50
[4] = tested on: CYP3A4; test: Selectivity ratio of IC50 for CYP3A4 in human liver microsomes using midazolam as substrate to IC50 for human transmembrane domain deficient FFAH expressed in Escherichia coli; format: toxicity; details: probe midazolam, read-out: Ratio IC50
[5] = tested on: CYP2C19; test: Selectivity ratio of IC50 for CYP2C19 in human liver microsomes to IC50 for rat FFAH expressed in Escherichia coli; format: toxicity; details: read-out: Ratio IC50
[6] = tested on: CYP2C9; test: Selectivity ratio of IC50 for CYP2C9 in human liver microsomes to IC50 for rat FFAH expressed in Escherichia coli; format: toxicity; details: read-out: Ratio IC50
[7] = tested on: CYP1A2; test: Selectivity ratio of IC50 for CYP1A2 in human liver microsomes to IC50 for rat FFAH expressed in Escherichia coli; format: toxicity; details: read-out: Ratio IC50
[8] = tested on: CYP1A2; test: Selectivity ratio of IC50 for CYP1A2 in human liver microsomes to IC50 for human transmembrane domain deficient FFAH expressed in Escherichia coli; format: toxicity; details: read-out: Ratio IC50
[9] = tested on: CYP3A4; test: Selectivity ratio of IC50 for CYP3A4 in human liver microsomes using testosterone as substrate to IC50 for human transmembrane domain deficient FFAH expressed in Escherichia coli; format: toxicity; details: probe testosterone, read-out: Ratio IC50
[10] = Drug level in liver of Sprague-Dawley rat at 10 mg/kg, po administered as single dose via gavage measured at 12 hrs by LC-MS/MS analysis; format: ADME, organism-based; details: read-out: Drug uptake
[11] = Drug level in brain of Sprague-Dawley rat at 10 mg/kg, po administered as single dose via gavage measured at 12 hrs by LC-MS/MS analysis; format: ADME, organism-based; details: read-out: Drug uptake
[12] = Drug level in plasma of Sprague-Dawley rat at 10 mg/kg, po administered as single dose via gavage measured at 12 hrs by LC-MS/MS analysis; format: ADME, organism-based

| concentration at 12 h [10] [µM] | concentration at 12 h [11] [µM] | concentration at 12 h [12] [nM] | Structure (SMILES) | Ratio IC50 [1] | Drug uptake [2] [%] | selectivity ratio [3] | selectivity ratio [4] | selectivity ratio [5] | selectivity ratio [6] | selectivity ratio [7] | selectivity ratio [8] | selectivity ratio [9] |
| --- | --- | --- | --- | --- | --- | --- | --- | --- | --- | --- | --- | --- |
| – | – | – | Nc1ncc(C(=O)N[C@H]2CC/C(=C\c3cccc(Oc4ccc(C(F)(F)F)cn4)c3)CC2)cn1 (stereo unspecified) | > 10000 | 50 to 80 | > 5000 | > 5000 | > 5000 | > 5000 | > 5000 | > 5000 | > 5000 |
| 21 | 3.6 | 1900 | O=C(N[C@H]1CC/C(=C\c2cccc(Oc3ccc(C(F)(F)F)cn3)c2)CC1)c1cccnc1 (stereo unspecified) | – | – | – | – | – | – | – | – | – |
| – | – | – | Cc1cc(C(=O)N[C@H]2CC/C(=C\c3cccc(Oc4ccc(C(F)(F)F)cn4)c3)CC2)cnc1N (stereo unspecified) | > 10000 | 50 to 80 | > 5000 | > 5000 | > 5000 | > 5000 | > 5000 | > 5000 | > 5000 |
